# Measurements: patent publication US6372194B1, “MRI contrast media recognizing minor environmental changes” (Nihon Schering K.K., priority 1997, dated 2002)
# Test: Proton relaxing times (T1, T2) and proton relaxivity, Minispec 20 MHz, 40° C.
# Format: physicochemical
# Conditions: for T1 relaxing time / T2 relaxing time: 20 MHz, 40° C.
# Procedure: The proton relativity of poly[Gd(DTPA-PDA)2]35 and poly[Gd(DTPA-PDA)5]14 obtained in Example 1 was compared with that of conventional MRI contrast medium. As the conventional MRI contrast medium, used was Gd-DTPA (Magnevist). The proton relaxivity was determined by using Minispec (NMS 120/125/10VTS, manufactured by Japan Bruker) at frequency at 20 MHz and temperature at 40° C. T1 was determined using an IR (inversion recovery) method under the conditions of initial τ of 2 ms, τ magnification of 1.7 and determination points of 20. T2 was determined using a CPMG (Carr-Purcell-Meiboon-Gill) method under the conditions of τ of 1 ms and determination points of 50.
# Respective proton relaxing times (T1 and T2) are shown in Table 1, and the proton relaxivity (R1 and R2) calculated from said proton relaxing time are shown in Table 2.
structure (smiles),measurement,setting,value
O=C([O-])CN(CCN(CC(=O)[O-])CC(=O)O)CCN(CC(=O)[O-])CC(=O)O.[Gd+3] [Gd-DTPA],T1 relaxing time,Gd concentration 0.1 mM,1503 ms
same,T2 relaxing time,Gd concentration 0.1 mM,1339 ms
same,T1 relaxing time,Gd concentration 1 mM,247 ms
same,T2 relaxing time,Gd concentration 1 mM,220 ms
same,T1 relaxing time,Gd concentration 5 mM,53 ms
same,T2 relaxing time,Gd concentration 5 mM,47 ms
same,T1 relaxing time,Gd concentration 10 mM,26 ms
same,T2 relaxing time,Gd concentration 10 mM,24 ms
same,proton relaxivity R1,calculated from proton relaxing time,3.81 1 mmol^−1 sec^−1
